The text below walks through data of patent US7928126B2, “Cyanopyridine derivative and use thereof as medicine” (Mitsubishi Tanabe Pharma Corporation, priority 2005, dated 2011).

Structures are written as SMILES. Structures can show the parent of a compound that is named as a salt.

Common to all, as to assay type: biochemical
One assay has as its target T1, aurora 2 kinase (Homo sapiens, UniProt O14965).
T1 construct: The amplified gene encoding aurora 2 kinase was introduced into Escherichia coli expression vector pET32a; made in house; host or cells: Escherichia coli BL21R (Novagen), vector pET32a
T1 sequence (O14965 1-403): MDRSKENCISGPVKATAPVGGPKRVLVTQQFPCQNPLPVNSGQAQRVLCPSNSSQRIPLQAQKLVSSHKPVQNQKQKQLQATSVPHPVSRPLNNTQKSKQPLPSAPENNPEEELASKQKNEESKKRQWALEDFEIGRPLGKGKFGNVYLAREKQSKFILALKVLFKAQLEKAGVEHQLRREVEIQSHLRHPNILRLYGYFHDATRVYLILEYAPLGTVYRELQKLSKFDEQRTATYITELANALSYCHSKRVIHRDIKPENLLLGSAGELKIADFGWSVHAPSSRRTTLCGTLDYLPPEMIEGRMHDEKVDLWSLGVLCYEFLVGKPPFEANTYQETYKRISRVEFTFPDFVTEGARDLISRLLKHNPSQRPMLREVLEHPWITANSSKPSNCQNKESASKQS
Briefly: Aurora 2 kinase assay (32P-ATP, peptide substrate LRRASLG). The note with it: room temperature 60 min.

In assay [1] the target is T2, Porcine brain tubulin protein (Sus scrofa, UniProt P02550+P02554).
T2 construct: 3.3 mg/ml Porcine brain tubulin protein: Cytoskeleton; purchased Cytoskeleton; host or cells: porcine brain (tissue-derived)
The assay can be described thus: Tubulin polymerization assay (turbidity at 405 nm). To be noted: 10 μM compound, maximum polymerization rate, 37° C.; read-out: inhibitory rate (%). As for the experimental part:
A tubulin polymerization reaction mixture (50 μL) (80 mM Pipes pH=6.9, 0.5 mM MgCl2, 1 mM EGTA, 1 mM GTP, 3.3 mg/ml Porcine brain tubulin protein: Cytoskeleton, 10 μM compound) was prepared in a 96 well flat bottom plate under ice-cooling. This was placed in a plate reader (IWAKI microplate reader, EZS-ABS) controlled to a temperature of 37° C., whereby a temperature dependent tubulin polymerization reaction was initiated. Since the turbidity of the reaction mixture increases as the tubulin polymerization proceeds, the absorbance at 405 nm was measured every other minute for 30 min to monitor the polymerization reaction. Of the 30 min measures, the three largest differences per min of turbidity (generally those immediately after start of the reaction) were taken, and the average of the three values was calculated and taken as the maximum polymerization rate. Inhibitory percent (%)=(C−T)/C×100 wherein T is the maximum polymerization rate of the reaction mixture containing the compound, and C is the maximum polymerization rate of the reaction mixture without the compound.

The target in another assay is T3, aurora 1 kinase (Homo sapiens, UniProt Q96GD4).
T3 construct: purchased UPSTATE
The assay can be described thus: Aurora 1 kinase assay (32P-ATP, peptide substrate LRRWSLG). The note with it: room temperature 60 min.

T3 sequence (Q96GD4 whole entry): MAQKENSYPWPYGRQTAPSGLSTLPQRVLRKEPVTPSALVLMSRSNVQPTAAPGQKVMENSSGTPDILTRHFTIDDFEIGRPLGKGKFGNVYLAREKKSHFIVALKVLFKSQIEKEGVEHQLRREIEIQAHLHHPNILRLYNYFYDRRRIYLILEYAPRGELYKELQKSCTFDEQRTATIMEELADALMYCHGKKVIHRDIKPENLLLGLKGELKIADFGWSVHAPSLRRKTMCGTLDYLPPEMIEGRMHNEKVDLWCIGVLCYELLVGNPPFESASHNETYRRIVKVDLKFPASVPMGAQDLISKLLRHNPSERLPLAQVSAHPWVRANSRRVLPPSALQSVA
T2 sequence (P02550 whole entry): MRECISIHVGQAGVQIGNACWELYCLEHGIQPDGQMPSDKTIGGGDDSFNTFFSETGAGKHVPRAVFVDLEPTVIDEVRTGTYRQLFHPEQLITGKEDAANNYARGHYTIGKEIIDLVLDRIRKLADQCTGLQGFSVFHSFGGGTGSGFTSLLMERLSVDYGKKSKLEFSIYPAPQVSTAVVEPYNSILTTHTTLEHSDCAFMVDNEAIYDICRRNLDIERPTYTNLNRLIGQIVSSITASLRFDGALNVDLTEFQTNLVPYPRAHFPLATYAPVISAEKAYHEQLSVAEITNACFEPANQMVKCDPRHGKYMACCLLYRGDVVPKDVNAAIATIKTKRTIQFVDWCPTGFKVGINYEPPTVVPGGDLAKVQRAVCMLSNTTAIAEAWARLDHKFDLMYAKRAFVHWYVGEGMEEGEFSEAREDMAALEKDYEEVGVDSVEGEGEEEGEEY
T2 sequence (P02554 whole entry): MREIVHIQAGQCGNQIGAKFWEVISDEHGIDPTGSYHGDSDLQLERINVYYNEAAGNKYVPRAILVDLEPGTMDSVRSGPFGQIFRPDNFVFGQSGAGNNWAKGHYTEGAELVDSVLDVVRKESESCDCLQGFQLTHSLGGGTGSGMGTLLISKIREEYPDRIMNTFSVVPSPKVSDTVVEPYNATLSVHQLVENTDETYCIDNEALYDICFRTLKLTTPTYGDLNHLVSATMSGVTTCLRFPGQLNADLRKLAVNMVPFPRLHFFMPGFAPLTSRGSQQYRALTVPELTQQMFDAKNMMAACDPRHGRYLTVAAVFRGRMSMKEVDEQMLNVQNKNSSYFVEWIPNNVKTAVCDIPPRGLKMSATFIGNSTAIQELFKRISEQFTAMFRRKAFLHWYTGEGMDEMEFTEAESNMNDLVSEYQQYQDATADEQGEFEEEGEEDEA

The Ki is the dissociation constant of the complex between target and ligand, obtained from inhibition or displacement. A higher Ki goes with a looser hold on the target. Consider `Cc1cc(Nc2ccc(C#N)c(NCCOc3cccc(F)c3)n2)n[nH]1` [Example 15, 2-(2-(3-fluorophenoxy)ethylamino)-6-(5-methyl-1H-pyrazol-3-ylamino)nicotinonitrile], for which the affinity at aurora 2 kinase corresponds to a Ki of 2 nM. Besides, the inhibition at 10 µM in assay [1] came out at 69%.

As for `Cc1cc(Nc2cc(C)c(C#N)c(NCCOc3cc(F)cc(F)c3)n2)n[nH]1` [Example 20, 2-(2-(3,5-difluorophenoxy)ethylamino)-6-(5-methyl-1H-pyrazol-3-ylamino)-4-methylnicotinonitrile hydrochloride], at aurora 2 kinase, affinity was put at a Ki of 2 nM. Further, the inhibition at 10 µM in assay [1] was 75%.

For the molecule `Cc1cc(Nc2ccc(C#N)c(NCCOc3cccnc3)n2)n[nH]1` [Example 17, 2-(2-(pyridin-3-yloxy)ethylamino)-6-(5-methyl-1H-pyrazol-3-ylamino)nicotinonitrile], the Ki on aurora 2 kinase is 2 nM. In assay [1], the inhibition at 10 µM came out at 67%.

As to `COc1ccc(-c2cc(Nc3cc(C)[nH]n3)nc(NCCOc3ccccc3)c2C#N)cc1` [Example 4, 2-(2-phenoxyethylamino)-6-(5-methyl-1H-pyrazol-3-ylamino)-4-(4-methoxyphenyl)nicotinonitrile], affinity on aurora 2 kinase was put at a Ki of 15 nM. Besides, the inhibition at 10 µM in assay [1] turned out to be 63%.

On to `Cc1cc(Nc2cc(C)c(C#N)c(NCCOc3ccccc3Cl)n2)n[nH]1` [Example 24, 2-(2-(2-chlorophenoxy)ethylamino)-6-(5-methyl-1H-pyrazol-3-ylamino)-4-methylnicotinonitrile hydrochloride], for which the Ki on aurora 2 kinase is 1 nM. Further, the inhibition at 10 µM in assay [1] worked out at 73%.

`Cc1cc(Nc2cc(-c3cccnc3)c(C#N)c(NCCOc3ccccc3)n2)n[nH]1` [Example 6, 2-(2-phenoxyethylamino)-6-(5-methyl-1H-pyrazol-3-ylamino)-4-(pyridin-3-yl)nicotinonitrile] yielded a Ki at aurora 2 kinase of 3 nM. Moreover, in assay [1], the inhibition at 10 µM is less than 0%.

In the case of `Cc1cc(Nc2cc(C)c(C#N)c(NCCOc3ccccc3F)n2)n[nH]1` [Example 13, 2-(2-(2-fluorophenoxy)ethylamino)-6-(5-methyl-1H-pyrazol-3-ylamino)-4-methylnicotinonitrile hydrochloride], the Ki on aurora 2 kinase is 2 nM; on aurora 1 kinase it was not above 100 nM. The inhibition at 10 µM in assay [1] stood at 69%.

With `COc1ccc(OCCNc2nc(Nc3cc(C)[nH]n3)cc(C)c2C#N)cc1` [Example 5, 2-(2-(4-methoxyphenoxy)ethylamino)-6-(5-methyl-1H-pyrazol-3-ylamino)-4-methylnicotinonitrile hydrochloride], the Ki on aurora 2 kinase stood at 26 nM. For the same molecule, the inhibition at 10 µM in assay [1] is 51%.

Consider `Cc1cc(Nc2cc(C3CC3)n[nH]2)nc(NCCOc2cccnc2)c1C#N` [Example 34, 6-(5-cyclopropyl-1H-pyrazol-3-ylamino)-4-methyl-2-(2-(pyridin-3-yloxy)ethylamino)nicotinonitrile], for which the Ki on aurora 1 kinase is not above 100 nM.

At aurora 2 kinase, `COc1ccc(-c2cc(Nc3cc(C)[nH]n3)nc(NCCOc3ccccc3Cl)c2C#N)cc1` [Example 26, 2-(2-(2-chlorophenoxy)ethylamino)-6-(5-methyl-1H-pyrazol-3-ylamino)-4-(4-methoxyphenyl)nicotinonitrile hydrochloride] showed a Ki of 13 nM. The inhibition at 10 µM in assay [1] came out at 48%.

Take `Cc1cc(Nc2ccc(C#N)c(NCCOc3ccccc3Cl)n2)n[nH]1` [Example 25, 2-(2-(2-chlorophenoxy)ethylamino)-6-(5-methyl-1H-pyrazol-3-ylamino)nicotinonitrile hydrochloride]: the figures for the Ki on aurora 2 kinase and on aurora 1 kinase were 2 nM and not above 100 nM, respectively. The inhibition at 10 µM in assay [1] came out at 51%.

Consider `Cc1cc(Nc2ccc(C#N)c(NCCOc3ccccc3F)n2)n[nH]1` [Example 19, 2-(2-(2-fluorophenoxy)ethylamino)-6-(5-methyl-1H-pyrazol-3-ylamino)nicotinonitrile hydrochloride], for which, at aurora 2 kinase, the affinity, expressed as Ki, was 1 nM. Further, the inhibition at 10 µM in assay [1] was 59%.

`Cc1cc(Nc2cc(-c3cccnc3)c(C#N)c(NCCOc3cccc(F)c3)n2)n[nH]1` [Example 18, 2-(2-(3-fluorophenoxy)ethylamino)-6-(5-methyl-1H-pyrazol-3-ylamino)-4-(pyridin-3-yl)nicotinonitrile dihydrochloride] returned a Ki at aurora 2 kinase of 2 nM. The inhibition at 10 µM in assay [1] was 79%.

In turn, `COc1ccccc1OCCNc1nc(Nc2cc(C)[nH]n2)cc(C)c1C#N` [Example 8, 2-(2-(2-methoxyphenoxy)ethylamino)-6-(5-methyl-1H-pyrazol-3-ylamino)-4-methylnicotinonitrile] registered a Ki on aurora 2 kinase of 6 nM. The inhibition at 10 µM in assay [1] stood at 42%.

Take `Cc1cc(Nc2ccc(C#N)c(NCCOc3ccc(OC(F)(F)F)cc3)n2)n[nH]1` [Example 30, 2-(2-(4-(trifluoromethoxy)phenoxy)ethylamino)-6-(5-methyl-1H-pyrazol-3-ylamino)nicotinonitrile]: the affinity on aurora 2 kinase, expressed as Ki, was 80 nM. In assay [1], the inhibition at 10 µM came to 34%.

Regarding `Cc1cc(Nc2cc(C)c(C#N)c(NCCOc3ccccn3)n2)n[nH]1` [Example 7, 2-(2-(pyridin-2-yloxy)ethylamino)-6-(5-methyl-1H-pyrazol-3-ylamino)-4-methylnicotinonitrile dihydrochloride], at aurora 2 kinase, the Ki turned out to be 6 nM. The inhibition at 10 µM in assay [1] is 63%.

For `Cc1cc(Nc2cc(C)c(C#N)c(NCCOc3ccc(F)c(Cl)c3)n2)n[nH]1` [Example 16, 2-(2-(3-chloro-4-fluorophenoxy)ethylamino)-6-(5-methyl-1H-pyrazol-3-ylamino)-4-methylnicotinonitrile], the Ki at aurora 2 kinase is 3 nM. The inhibition at 10 µM in assay [1] was found to be 65%.

Turning to `Cc1cc(Nc2cc(C)c(C#N)c(NCCOc3ccc(F)cc3)n2)n[nH]1` [Example 10, 2-(2-(4-fluorophenoxy)ethylamino)-6-(5-methyl-1H-pyrazol-3-ylamino)-4-methylnicotinonitrile], the Ki on aurora 2 kinase is 3 nM. Besides, the inhibition at 10 µM in assay [1] worked out at 44%.

The molecule `Cc1cc(Nc2cc(C)c(C#N)c(NCCOc3ccncc3)n2)n[nH]1` [Example 11, 2-(2-(pyridin-4-yloxy)ethylamino)-6-(5-methyl-1H-pyrazol-3-ylamino)-4-methylnicotinonitrile] yielded an inhibitory constant (Ki) at aurora 2 kinase of 24 nM. In addition, the inhibition at 10 µM in assay [1] turned out to be 42%.

At aurora 2 kinase, `Cc1cc(Nc2cc(-c3ccccc3)c(C#N)c(NCCOc3ccccc3)n2)n[nH]1` [Example 1, 2-(2-phenoxyethylamino)-6-(5-methyl-1H-pyrazol-3-ylamino)-4-phenylnicotinonitrile] showed an inhibition constant Ki of 19 nM. Also, in assay [1], the inhibition at 10 µM stood at 51%.

Consider `Cc1ccc(OCCNc2nc(Nc3cc(C)[nH]n3)ccc2C#N)cn1` [Example 27, 2-(2-(6-methylpyridin-3-yloxy)ethylamino)-6-(5-methyl-1H-pyrazol-3-ylamino)nicotinonitrile dihydrochloride], for which the Ki at aurora 2 kinase is 3 nM; at aurora 1 kinase it was not above 100 nM. Moreover, the inhibition at 10 µM in assay [1] is 57%.

As to `Cc1cc(Nc2cc(C(C)C)n[nH]2)nc(NCCOc2cccnc2)c1C#N` [Example 35, 6-(5-isopropyl-1H-pyrazol-3-ylamino)-4-methyl-2-(2-(pyridin-3-yloxy)ethylamino)nicotinonitrile], the inhibitory constant (Ki) on aurora 1 kinase was not above 100 nM.

Regarding `Cc1ccc(OCCNc2nc(Nc3cc(C)[nH]n3)ccc2C#N)c(C)n1` [Example 29, 2-(2-(2,6-dimethylpyridin-3-yloxy)ethylamino)-6-(5-methyl-1H-pyrazol-3-ylamino)nicotinonitrile dihydrochloride], the affinity at aurora 2 kinase corresponds to a Ki of 66 nM. The inhibition at 10 µM in assay [1] came out at 42%.

Take `Cc1cc(Nc2ccc(C#N)c(NCCOc3ccccc3)n2)n[nH]1` [Example 14, 2-(2-phenoxyethylamino)-6-(5-methyl-1H-pyrazol-3-ylamino)nicotinonitrile]: the Ki on aurora 2 kinase amounted to 3 nM. For the same molecule, the inhibition at 10 µM in assay [1] was 55%.

With `Cc1cc(Nc2cc(C(F)(F)F)c(C#N)c(NCCOc3ccccc3)n2)n[nH]1` [Example 3, 2-(2-phenoxyethylamino)-6-(5-methyl-1H-pyrazol-3-ylamino)-4-trifluoromethylnicotinonitrile], at aurora 2 kinase, affinity was put at a Ki of 15 nM. In addition, in assay [1], the inhibition at 10 µM worked out at 36%.
